Reference: article PMC11513892, “Discovery of a Series of Macrocycles as Potent Inhibitors of Leishmania Infantum” (Journal of Medicinal Chemistry, 2024)
Read-outs that look alike come from different tables or passages of the source.

How the values were obtained:
[1] = system: T. b. brucei; experiment: Growth of T. b. brucei trypomastigotes in axenic culture; type: cell-based; details: Trypanosoma brucei
Description: (§1) We previously reported the synthesis of a series of macrocycles, including 1 (Figure 2A), designed to investigate how structural features influence molecular chameleonicity.[15],[21] Originating from the structural similarities between 1 and hymenocardine, we investigated 1 in screens for P. falciparum and four kinetoplastid parasites: T. b. brucei, T. b. rhodesiense, T. cruzi, and L. infantum. In the screens, we also included compounds 2 and 3 (Figure 2A), which were obtained from an intermediate late in the synthetic route to 1. Since very few validated protein targets relevant to clearance of parasites are known, phenotypic assays were used to investigate the antiparasitic activity for all five parasites. For malaria, the P. falciparum blood stage 3D7 strain was used to test the three compounds. For the two Trypanosoma brucei species, the reduction in trypomastigote growth in culture medium was determined after the addition of 1–3. For T. cruzi, the intracellular parasite growth in infected human fibroblasts (MRC-5 cell line) was assessed in the presence and absence of the three inhibitors. Similarly, the growth of L. infantum was assessed in infected primary mouse macrophages (PMMs) in the presence and absence of the inhibitors. […] The assays for T. cruzi and L. infantum are complex, i.e., they determine the degree of inhibition of parasitic replication in a mammalian cell line; this complexity may lead to a high variability for some compounds.
(§2) The growth of the P. falciparum blood stage 3D7 strain,[53] the two T. brucei species in axenic cultures,[54]T. cruzi in infected human fibroblasts (MRC-5 cell line),[55] and of L. infantum in infected primary mouse macrophages (PMMs)[56] was determined as previously reported in the presence and absence of inhibitors 1–12.

[2] = system: T. b. rhodesiense; experiment: Growth of T. b. rhodesiense trypomastigotes in axenic culture; type: cell-based, Trypanosoma brucei rhodesiense; details: for EC50: Trypanosoma brucei, RHODESIENSE / STIB900, CSV supplement, decimal comma, read-out: EC50 T.b. rhodesiense STIB 900
Description: as §1, §2

[3] = system: T. cruzi; experiment: Intracellular growth of T. cruzi in infected human fibroblasts (MRC-5 cell line); type: cell-based; details: Trypanosoma cruzi
Description: as §1, §2

[4] = system: L. infantum; experiment: Growth of L. infantum in infected primary mouse macrophages (PMMs), phenotypic assay; type: cell-based, Leishmania infantum; details: for EC50: Leishmania infantum, Macrophage
Description: as §1
(§3) The potency of macrocycles 1–12 to inhibit the growth of L. infantum was determined in a phenotypic assay in which the parasite was grown in primary peritoneal mouse macrophages (PMMs). To understand whether the SAR for inhibition of parasitic growth is impacted by low cell permeability, the permeability of compounds 1–12 was determined separately. Madin-Darby canine kidney (MDCK) cells transfected with the human MDR1 (multidrug resistance 1) gene (MDCK-MDR1 cells) were used to determine permeabilities in the apical to basolateral direction (Papp AB) as well as efflux ratios (ERs). […] Lipophilicity (Log D at pH 7.4), aqueous kinetic solubility and mouse liver microsomal metabolism were also determined for 1–12, and are discussed separately (cf. physiochemical properties and ADMET, below).
as §2

[5] = system: MRC-5 cells; experiment: Host cell cytotoxicity in MRC-5 cells; type: cell-based, human; details: CSV supplement; decimal comma
[6] = system: primary mouse macrophages (PMMs); experiment: Host cell cytotoxicity in primary mouse macrophages (PMM); type: cell-based; details: CSV supplement; decimal comma
[7] = system: MDCK-MDR1 cells; experiment: in vitro; type: in vitro ADME, canine; details: dog, MDCK-MDR1, pH 7.4
Procedure: as §3
(§4) The kinetic solubility in phosphate buffered saline at pH 7.4, chromatographic Log D at pH 7.4, cell permeability across a MDCK-MDR1 cell monolayer at pH 7.4, and the clearance in mouse liver microsomes of 1–12 was determined at TCG Lifesciences.

[8] = system: MDR1; experiment: in vitro; type: in vitro ADME, canine; details: dog; for Papp B→A: MDCK-MDR1, pH 7.4; for Papp A→B: MDCK-MDR1, pH 7.4, Papp AB
Procedure: as §3, §4

[9] = Kinetic solubility in phosphate buffered saline at pH 7.4; type: physicochemical
Procedure: as §4

[10] = Chromatographic Log D at pH 7.4; type: physicochemical; details: 1-octanol/PBS pH 7.4, determined by chromatography, mean of two measurements
Procedure: as §4

[11] = Clearance in mouse liver microsomes; type: in vitro ADME; details: for microsomal CLint: mouse, liver microsomes
Procedure: as §4

[12] = system: P. falciparum blood stage 3D7 strain; experiment: Growth of P. falciparum blood stage 3D7 strain (phenotypic); type: cell-based, Plasmodium falciparum; details: Figure 2A; for EC50: Plasmodium falciparum, 3D7, mean (SD) from 2 to 14 measurements
Description: as §1, §2

[13] = Clearance in human microsomes; type: in vitro ADME; details: CSV supplement; for microsomal CLint: human, microsomes, read-out: CLint in vitro Human Microsomes
Description: Supplement jm4c01370_si_002.csv, table | column: CLint in vitro Human Microsomes µL/min/mg; t(1/2) min

[14] = system: Leishmania donovani; experiment: Activity against Leishmania donovani; type: cell-based
[15] = Metabolite identification after incubation with rat liver microsomes; type: in vitro ADME; details: Figure S3: rat liver microsomes, samples at 5, 10, 20, 30 and 60 minutes
Procedure: page 4: Figure S2. Endo and exo conformations for compound 5, obtained using the Monte Carlo-QM protocol for conformational sampling. Minimum energy conformations (MECs) and all conformations within 5 kcal/mol of the MECs are shown. Figure S3. Metabolically labile sites (indicated by red circles) observed for compound 3 after incubation with rat liver microsomes. Samples were collected at 5, 10, 20, 30 and 60 minutes. […]

[16] = CSV supplement, decimal comma, read-out: EC50 T.b. brucei Squib 427
[17] = Table S1, mean (SD), 2 to 14 measurements, unit not given in Table S1, read-out: In vitro potency, T. b. brucei
[18] = MRC5, Table S1, mean (SD), 2 to 14 measurements, unit not given in Table S1, read-out: In vitro potency, T. cruzi
[19] = TULAHUEN, MRC5, read-out: EC50 T. cruzi Tulahuen C4 (LacZ)
[20] = CSV supplement, decimal comma, read-out: EC50 L. infantum MHOM/MA(BE)/67
[21] = Table 1, mean (standard deviation, number of measurements), read-out: EC50 (μM), inhibition of the growth of L. infantum
[22] = MDCK-MDR1, pH 7.4, ER, efflux ratio (BA/AB)
[23] = MDCK-MDR1, pH 7.4, MDCK MDR1 - pH 7.4 Efflux Ratio
[24] = phosphate buffered saline, pH 7.4, CSV supplement, read-out: Kinetic solubility
[25] = phosphate buffered saline, pH 7.4, phosphate buffered saline pH 7.4, assay range 2.5–200 μM, read-out: solubility (kinetic)
[26] = CSV supplement, read-out: CLint in vitro Mouse Microsomes
[27] = incubation with mouse liver microsomes, read-out: CLint
[28] = MRC5, Figure 2A, mean (SD) from 2 to 14 measurements, read-out: EC50 T. cruzi

Compound | EC50 [1, 16] [µM] | EC50 [2] [µM] | EC50 [3, 19] [µM] | EC50 [4, 20] [µM] | EC50 [4, 21] [µM] | MRC-5 cells Human Lung Fibroblast Cells (cytotoxicity) [5] | PMM Primary Mouse Macrophages (inf-LMPH) (cytotoxicity) [6] | Papp B→A [8] [×10⁻⁶ cm/s] | efflux ratio [8, 22] | efflux ratio [8, 23] | Papp A→B [8] [×10⁻⁶ cm/s] | solubility kinetic [9, 24] [µg/mL] | solubility kinetic [9, 25] [µM] | chromatographic logD [10] | t(1/2), Mouse Microsomes ([11]; CSV supplement) | microsomal CLint [11, 26] [µL/min/mg] | microsomal CLint [11, 27] [µL/min/mg] | potency as inhibitor of P. falciparum (in words) [12] | t(1/2), Human Microsomes [13] | microsomal CLint [13] [µL/min/mg] | further results
CC(C)(C)OC(=O)N[C@H]1Cc2ccc(cc2)Oc2ccc(cc2NC(=O)c2ccccn2)CCNC(=O)[C@H](Cc2ccccc2)NC1=O [Compound 6, tert-Butyl ((8S,11S)-8-Benzyl-7,10-dioxo-3^2-(picolinamido)-2-oxa-6,9-diaza-1,3(1,4)-dibenzenacyclododecaphane-11-yl)carbamate] | 11.8 | 6.3 | 18.8 | 12.3 | 12 | 45,8 µM | 16,0 µM | 79.9 | 8.4 | 8.4 | > 5 | 3.8 | 5.9 | 5.1 | <3 min | > 578 | > 580 | – | – | – | EC50 [1, 17]: 12 µM; EC50 [3, 18]: 19 µM; Papp AB [7]: 9.5 ×10^–6 cm/s
CC(=O)Nc1cc2ccc1Oc1ccc(cc1)C[C@H](NC(=O)OC(C)(C)C)C(=O)N[C@@H](Cc1ccccc1)C(=O)NCC2=O [Compound 2] | 37 | 29 | 41 | – | 31 | 50,5 µM | >64 µM | 13.3 | 19 | 19.3 | 0.7 | 101 | > 100 | 3.2 | 6,0 min | 257 | 260 | low or no potency | 6,1 min | 285 | EC50 [12]: > 25 µM; solubility kinetic ([9]; phosphate buffered saline pH 7.4, assay range 2.5–200 μM, read-out: solubility (kinetic)): 169 µM
CC(C)(C)OC(=O)N[C@H]1CCc2ccc(cc2)Oc2ccc(cc2NC(=O)c2ccccn2)C(=O)CNC(=O)[C@H](Cc2ccccc2)NC1=O [Compound 5, tert-Butyl ((8S,11S)-8-Benzyl-4,7,10-trioxo-3^2-(picolinamido)-2-oxa-6,9-diaza-1,3(1,4)-dibenzenacyclotridecaphane-11-yl)carbamate] | 7.4 | 5.6 | 18 | 16.6 | 17 | >64 µM | >64 µM | 17.3 | 13 | 13.2 | 1.3 | 1.8 | 2.7 | 4.8 | <3 min | > 578 | > 580 | – | <3 min | > 578 | loss in potency compared to 3, L. infantum ([4]; relative to compound 3): ~10 fold
CC(C)C[C@@H]1NC(=O)[C@@H](NC(=O)OC(C)(C)C)Cc2ccc(cc2)Oc2ccc(cc2NC(=O)c2ccccn2)C(=O)CNC1=O [Compound 10, tert-Butyl ((8S,11S)-8-Isobutyl-4,7,10-trioxo-3^2-(picolinamido)-2-oxa-6,9-diaza-1,3(1,4)-dibenzenacyclododecaphane-11-yl)carbamate] | 8.5 | 2.1 | 50 | – | 2.1 | >64 µM | >64 µM | 6.8 | 3.1 | 3.1 | 2.2 | 4.8 | 7.6 | 4.8 | <3 min | > 578 | > 580 | – | 4,8 min | 361 | activity as inhibitor of T. b. rhodesiense (in words) ([2]; text on Table S1): moderately active
CC(C)(C)OC(=O)N[C@H]1Cc2ccc(cc2)Oc2ccc(cc2)C(=O)CNC(=O)[C@H](Cc2ccccc2)NC1=O [Compound 1] | 6.1 | 6 | 14.6 | 32.8 | 33 | >64 µM | 48,0 µM | 21.4 | 4.3 | 4.3 | 5 | 24 | 44 | 4 | <3 min | > 578 | > 580 | low or no potency | 3,5 min | 497 | EC50 [12]: 21 µM; EC50 [3, 28]: 10 to 30 µM; EC50 [3, 18]: 15 µM
CC(C)(C)OC(=O)N[C@H]1Cc2ccc(cc2)Oc2ccc(cc2NC(=O)c2ccccn2)C(=O)CNC(=O)[C@H](Cc2ccccc2)NC1=O [Compound 3, tert-Butyl ((8S,11S)-8-Benzyl-4,7,10-trioxo-3^2-(picolinamido)-2-oxa-6,9-diaza-1,3(1,4)-dibenzenacyclododecaphane-11-yl)carbamate] | 15.1 | 9.1 | 20 | – | 1.8 | 57,6 µM | >64 µM | 22.2 | 6.4 | 6.4 | 3.5 | 1 | < 2.5 | 4.9 | <3 min | > 578 | > 580 | moderately potent | <3 min | > 578 | EC50 [12]: 3 µM; EC50 [1, 17]: 15 µM; EC50 [3, 28]: 10 to 30 µM; EC50 ([4]; Figure 2, mean (SD), miltefosine from 19 measurements, read-out: EC50 L. infantum): < 2 µM; EC50 [14]: 1.04 ± 0.25 µM; metabolite identification, sites of metabolism [15]: oxidative metabolism occurring at the P2 and P3 positions, and at the α-carbon atom of the tyrosine moiety in the macrocyclic ring
